SMILES strings stand for the structures. Where two headings read alike, the source gives them in different places.

This assay deals with recombinant eIF4E (Homo sapiens (Human), UniProt P06730). In words: Fluorescence polarization competition assay for eIF4E binding potency. Summed up:
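FP readout; IC50 fit from 8-point, 3-fold series. 75 nM eIF4E + 20 nM ATTO-550-labelled m7GDP probe, Tris pH 7.5/NaCl/DTT/Tween buffer, 1% DMSO final. 30 min RT equilibration, light-protected.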

Where [1] appears, read: inhibition of eIF4E/EDA-m7GDP-ATTO-550 binding, calculated IC50 values, Table 4B, read-out: IC50.
The mark [2] stands for this setting: fluorescence polarization competition, 75 nM recombinant eIF4E, 20 nM EDA-m7GDP-ATTO-550, IC50 class, read-out: elF4E FP.
Setting [3] is: inhibition of eIF4E/EDA-m7GDP-ATTO-550 binding by 50%, Table 4B calculated values, read-out: IC50.

Chain of recombinant eIF4E (P06730 whole entry): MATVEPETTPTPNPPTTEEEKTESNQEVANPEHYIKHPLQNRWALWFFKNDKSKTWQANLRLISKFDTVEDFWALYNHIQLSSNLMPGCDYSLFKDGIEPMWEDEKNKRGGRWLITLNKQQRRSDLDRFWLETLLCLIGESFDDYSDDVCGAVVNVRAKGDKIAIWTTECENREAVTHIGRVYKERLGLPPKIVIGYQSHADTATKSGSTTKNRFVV

As for `Cc1nc2cnc(N3CCN(C4(CC(F)(F)F)CC4)CC3)c(C#N)c2c(=O)n1CCOc1ccc(Cl)cc1-c1ccnc2c(C(=O)O)csc12` [compound 1361], under setting [1], the IC50 is 0.0213 µM.

`Cc1cc(-c2cc(Cl)ccc2OCCn2c(C)nc3cc(CCN(C)C)c(OC(F)F)c(C#N)c3c2=O)c2scc(C(=O)O)c2n1` [compound 607]: the IC50 was less than 0.05 µM under setting [2] and 0.0055 µM under setting [3].

Regarding `Cc1cc(-c2cc(Cl)ccc2OCCn2c(C)nc3cc4c(c(C#N)c3c2=O)CCNC4)c2scc(C(=O)O)c2n1` [compound 334], the IC50 by setting is: under setting [2], less than 0.05 µM; under setting [3], 0.0104 µM.

In the case of `CCN(c1ncc2nc(C)n(CC#Cc3ccc(Cl)cc3-c3ccnc4c(C(=O)NS(=O)(=O)C5CC(F)(F)C5)csc34)c(=O)c2c1C#N)C1CCN(C2COC2)CC1` [compound 1739], under setting [1], the IC50 was 0.0333 µM.

With `O=C(O)c1cccc(-c2cc(Cl)ccc2OCCn2cnc3ccncc3c2=O)c1` [compound 13], the IC50 under setting [2] is more than 1 µM and the IC50 under setting [3] is 1.07 µM.

As to `Cc1nc2cc(C(F)(F)F)nc(C#N)c2c(=O)n1CCOc1ccc(Cl)cc1-c1cccc(C(=O)O)c1` [compound 154], under setting [2], the IC50 is 0.05 to 1 µM.

For `Cc1cc(-c2c(C(F)(F)F)cc3nc(C)n(CCOc4ccc(Cl)cc4-c4cc(C)nc5c(C(=O)O)csc45)c(=O)c3c2C#N)cc(CF)n1` [compound 934], the IC50 was less than 0.05 µM under setting [2] and 0.0136 µM under setting [3].

Take `Cc1nc2cnc(N(C)C3CCOCC3)c(C#N)c2c(=O)n1CC#Cc1ccc(Cl)cc1-c1ccnc2c(C(=O)O)csc12` [compound 1528]: under setting [1], the IC50 was 0.00631 µM.

Consider `Cc1nc2c(F)c(Cl)c(C(F)F)c(C#N)c2c(=O)n1CCOc1ccc(Cl)cc1-c1ccnc2c(C(=O)O)csc12` [compound 498], for which the IC50 under setting [2] was less than 0.05 µM and the IC50 under setting [3] was 0.0242 µM.

Take `Cc1cc(-c2cc(Cl)ccc2OCCn2c(C)nc3cc(C(F)(F)F)c(-c4ccccc4C(N)=O)nc3c2=O)c2scc(C(=O)O)c2n1` [345b]: under setting [3], the IC50 is 0.0253 µM.

As to `Cc1ncc(C#N)c2c(=O)n(CCOc3ccc(Cl)cc3-c3ccc(C)c4c(C(=O)O)csc34)c(C)nc12` [compound 722], the IC50 under setting [2] was less than 0.05 µM and the IC50 under setting [3] is 0.038 µM.

Turning to `Cc1cc(-c2cc(N3CC(F)(F)C3)ccc2OCCn2c(C)nc3cc(C(F)(F)F)c(N4CC(F)(F)C4)c(C#N)c3c2=O)c2scc(C(=O)O)c2n1` [compound 2036], the IC50 under setting [1] was 0.0384 µM.

`Cc1nc2cnc(N(C)C3CCN(CC(F)(F)C4(O)CCC4)CC3)c(C#N)c2c(=O)n1CC#Cc1ccc(Cl)cc1-c1ccnc2c(C(=O)O)csc12` [compound 1598]: under setting [1], the IC50 is 0.0375 µM.

As for `Cc1nc2cnc(N3CCN(C)C(C)(C)C3)c(C#N)c2c(=O)n1CCOc1ccc(Cl)cc1-c1ccnc2c(C(=O)O)csc12` [compound 815], the IC50 reads like this: under setting [2], less than 0.05 µM; under setting [3], 0.00331 µM.

On to `Cc1nc2cc(C(F)(F)F)c(C#CCN)c(C#N)c2c(=O)n1CCOc1ccc(Cl)cc1-c1ccnc2c(C(=O)O)csc12` [compound 1260], for which the IC50 under setting [1] is 0.013 µM.

Regarding `Cc1nc2cc(C(F)(F)F)cc(C#N)c2c(=O)n1CCOc1ccc(Cl)cc1-c1cn(C)c(=O)c2c(C(=O)O)csc12` [compound 590], the IC50 by setting is: under setting [2], less than 0.05 µM; under setting [3], 0.00226 µM.

Regarding `Cc1cc(-c2cc(Cl)ccc2C#CCn2c(C)nc3cc(C(F)(F)F)cc(C#N)c3c2=O)c2scc(C(=O)O)c2n1` [compound 560], the IC50 under setting [2] was less than 0.05 µM and the IC50 under setting [3] is 0.00477 µM.

With `Cc1nc2cnc(Nc3ccccc3)cc2c(=O)n1CCOc1ccc(Cl)cc1-c1cccc(C(=O)O)c1` [compound 2004], the IC50 under setting [1] is 0.639 µM.

As for `Cc1cc(-c2cc(Cl)ccc2OCCn2c(C)nc3cnc(N4CCN(C)CC4)c(C#N)c3c2=O)c2sc(C)c(C(=O)O)c2n1` [compound 1418], under setting [1], the IC50 was 0.0091 µM.

For the molecule `Cc1cc(-c2cc(Cl)ccc2OCCn2c(C)nc3cnc(-c4ccc(F)cc4)c(C#N)c3c2=O)c2scc(C(=O)O)c2n1` [compound 943], the IC50 by setting is: under setting [2], less than 0.05 µM; under setting [3], 0.0147 µM.

For `Cc1nc2cc(OC(F)F)c(Cl)c(C#N)c2c(=O)n1CCOc1ccc(Cl)cc1-c1ccnc2c(C(=O)O)csc12` [compound 537], the IC50 runs as follows: under setting [2], less than 0.05 µM; under setting [3], 0.0466 µM.

Take `Cc1nc2cnc(N(C)C3CCN(CC(C)(F)F)CC3)c(C(N)=O)c2c(=O)n1CC#Cc1ccc(Cl)cc1-c1ccnc2c(C(=O)OC(C)(C)C)csc12` [compound 1960]: the IC50 under setting [1] is 43.2 µM.

For the molecule `COCC(F)(F)CN1CCC(N(C)c2ncc3nc(C)n(CC#Cc4ccc(Cl)cc4-c4ccnc5c(C(=O)O)csc45)c(=O)c3c2C#N)CC1` [compound 1133], the IC50 runs as follows: under setting [2], less than 0.05 µM; under setting [3], 0.017 µM.

`Cc1ncc(C#N)c2c(=O)n(CCOc3ccc(Cl)cc3-c3ccc(Cl)c4c(C(=O)O)csc34)c(C)nc12` [compound 723]: the IC50 under setting [2] is less than 0.05 µM and the IC50 under setting [3] is 0.0287 µM.

For the molecule `Cc1c(CC#Cc2ccc(Cl)cc2-c2ccnc3c(C(=O)O)csc23)c(=O)c2c(C#N)c(Cl)c(C(F)(F)F)cc2n1C` [compound 669], the IC50 was less than 0.05 µM under setting [2] and 0.0364 µM under setting [3].

Consider `Cc1cc(-c2cc(Cl)ccc2OCCn2c(C)nc3cc(C(F)(F)F)c(-n4cccn4)c(C#N)c3c2=O)c2scc(C(=O)O)c2n1` [compound 633], for which the IC50 reads like this: under setting [2], less than 0.05 µM; under setting [3], 0.0129 µM.

Take `Cc1cc(-c2cc(Cl)ccc2OCCn2c(C)nc3cc(F)c(C)c(C#N)c3c2=O)c2scc(C(=O)O)c2n1` [compound 368]: the IC50 by setting is: under setting [2], less than 0.05 µM; under setting [3], 0.0411 µM.

`Cc1nc2cc(C(F)(F)F)c(C(F)F)c(C#N)c2c(=O)n1CCOc1ccc(Cl)cc1-c1cccc(C(=O)O)c1` [compound 59]: the IC50 is, setting by setting: under setting [2], less than 0.05 µM; under setting [3], 0.0215 µM.

For the molecule `Cc1cc(-c2cc(Cl)ccc2OCCn2c(C)nc3cc(C(F)(F)F)c(N4CCCCC4)c(C#N)c3c2=O)c2scc(C(=O)O)c2n1` [compound 423], the IC50 is, setting by setting: under setting [2], less than 0.05 µM; under setting [3], 0.00884 µM.

For the molecule `Cc1ccc(-c2cc(Cl)ccc2OCCn2c(C)nc3c(C#N)nc(-c4cccnc4)c(C)c3c2=O)c2scc(C(=O)O)c12` [compound 729], the IC50 under setting [2] fell in the range of 0.05 to 1 µM and the IC50 under setting [3] was 0.0925 µM.

Take `Cc1cc(-c2c(F)cc3nc(C)n(CCOc4ccc(Cl)cc4-c4cc(C)nc5c(C(=O)O)csc45)c(=O)c3c2C#N)cc(C)n1` [compound 932]: the IC50 runs as follows: under setting [2], less than 0.05 µM; under setting [3], 0.0178 µM.

Take `CSc1c(-c2cc(Cl)ccc2OCCn2c(C)nc3cnc(C4CC4)c(C#N)c3c2=O)ccnc1C(=O)O` [compound 757]: the IC50 runs as follows: under setting [2], 0.05 to 1 µM; under setting [3], 0.137 µM.

Regarding `Cc1nc2cnc(N3CCN(CCF)C(C)(C)C3)c(C#N)c2c(=O)n1CCOc1ccc(Cl)cc1-c1ccnc2c(C(=O)O)csc12` [compound 1333], the IC50 under setting [1] was 0.0262 µM.

Turning to `Cc1nc(N2CCN(C)CC2)c(C#N)c2c(=O)n(CCOc3ccc(Cl)cc3-c3ccnc4c(C(=O)O)csc34)c(C)nc12` [compound 448], the IC50 by setting is: under setting [2], less than 0.05 µM; under setting [3], 0.0042 µM.

As for `Cc1cc(-c2cc(Cl)ccc2OCCn2c(C)nc3cc(C(F)(F)F)c(C4CCNCC4)cc3c2=O)c2sc(C)c(C(=O)O)c2n1` [compound 877], the IC50 reads like this: under setting [2], 0.05 to 1 µM; under setting [3], 0.234 µM.

For `Cc1nc2cc(C(F)(F)F)cc(C#N)c2c(=O)n1CCOc1ccc(Cl)cc1-c1cnnc2c(C(=O)O)csc12` [compound 314], the IC50 is, setting by setting: under setting [2], less than 0.05 µM; under setting [3], 0.0428 µM.

In the case of `Cc1cc(-c2cc(Cl)ccc2OCCn2c(C)nc3cc(Cl)c(Nc4cncc(F)c4)c(C#N)c3c2=O)c2scc(C(=O)O)c2n1` [compound 962], the IC50 under setting [2] was less than 0.05 µM and the IC50 under setting [3] is 0.00315 µM.

Turning to `Cc1cc(-c2cc(Cl)ccc2OCCn2c(C)nc3cc(Cl)c(N4CC(C)(C)C4)c(C#N)c3c2=O)c2scc(C(=O)O)c2n1` [compound 691], the IC50 is less than 0.05 µM under setting [2] and 0.00717 µM under setting [3].

For the molecule `Cc1nc2cnc(N3CCN(CCC(F)(F)F)CC3)c(C#N)c2c(=O)n1CCOc1ccc(Cl)cc1-c1ccnc2c(C(=O)O)csc12` [compound 1308], the IC50 under setting [1] is 0.0415 µM.

Take `Cc1cc(-c2cc(Cl)ccc2OCCn2c(C)nc3cc(C(F)F)c(-c4cccnc4C)c(C#N)c3c2=O)c2scc(C(=O)O)c2n1` [compound 440]: the IC50 under setting [2] was less than 0.05 µM and the IC50 under setting [3] is 0.00499 µM.

As to `CCc1cc(-c2cc(Cl)ccc2OCCn2c(C)nc3cc(C(F)(F)F)c(-c4cccnc4)c(C#N)c3c2=O)c2scc(C(=O)O)c2n1` [compound 1013], the IC50 was less than 0.05 µM under setting [2] and 0.0185 µM under setting [3].

Regarding `Cc1nc2cnc(N(C)C3CCN(C4CC4)C4(CC4)C3)c(C#N)c2c(=O)n1CC#Cc1ccc(Cl)cc1-c1ccnc2c(C(=O)O)csc12` (centres unmarked) [compound 1496], the IC50 under setting [1] is 0.0325 µM.

`Cc1nc2cnc(N3CCN(C4CC(F)(F)C4)CC3)c(C#N)c2c(=O)n1CC#Cc1ccc(Cl)cc1-c1ccnc2c(C(=O)O)csc12` [compound 1163]: the IC50 is less than 0.05 µM under setting [2] and 0.0248 µM under setting [3].

For `Cc1nc2cnc(N(C)C3CCN(C4(COC(F)F)CC4)CC3)c(C#N)c2c(=O)n1CC#Cc1ccc(Cl)cc1-c1ccnc2c(C(=O)O)csc12` [compound 1504], the IC50 under setting [1] is 0.0136 µM.

For the molecule `Cc1sc2c(-c3cc(Cl)ccc3OCCn3c(C)nc4c(C)nc(N5CCN(C)CC5)c(C#N)c4c3=O)ccnc2c1C(=O)O` [compound 1297], the IC50 under setting [1] is 0.0378 µM.

Consider `Cc1cc(-c2ncc3nc(C)n(CCOc4ccc(Cl)cc4-c4cc(C)nc5c(C(=O)O)csc45)c(=O)c3c2C#N)cc(C)n1` [compound 873], for which the IC50 is, setting by setting: under setting [2], less than 0.05 µM; under setting [3], 0.0157 µM.

Take `Cc1nc2cnc(N3CCN(C4(CCF)CC4)CC3)c(C#N)c2c(=O)n1CCOc1ccc(Cl)cc1-c1ccnc2c(C(=O)O)csc12` [compound 1425]: under setting [1], the IC50 is 0.013 µM.

These data come from patent US11286268B1, “EIF4E-inhibiting compounds and methods” (EFFECTOR THERAPEUTICS, INC., priority 2019, dated 2022).
